Laboratory results: PubChem BioAssay AID1963848 (Molecular Pharmacology Branch, DTP, NCI, 2024)

Test system: 379773-124-R-J2-PDC spheroid viability
Test: Anticancer human tumor 379773-124-R-J2-PDC patient-derived endometrial carcinoma cell line growth inhibition [POLQ]
Settings: spheroids with HUVEC and MSC; for IC50: curve of first compound; for viability, T/C: stronger effect = lower value
Summary of the method: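 Complex spheroid viability model combining PDC tumour cells with endothelial (HUVEC) and MSC stromal cells. Novobiocin, ART-558 or RP6685 were tested singly and in combination with standard and investigational anticancer drugs. Each was titrated in half-log steps from near clinical Cmax, or from 10 microM where Cmax was unknown.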

[1] = second compound 0.0316 µM, first compound 0.00316 µM
[2] = second compound 0.0316 µM, first compound 0.01 µM
[3] = second compound 0.0316 µM, first compound 0.0316 µM
[4] = second compound 0.0316 µM, first compound 0.1 µM
[5] = second compound 0.0316 µM, first compound 0.316 µM
[6] = second compound 0.0316 µM, first compound 1 µM
[7] = second compound 0.1 µM, first compound 0.00316 µM
[8] = second compound 0.1 µM, first compound 0.01 µM
[9] = second compound 0.1 µM, first compound 0.0316 µM
[10] = second compound 0.1 µM, first compound 0.1 µM
[11] = second compound 0.1 µM, first compound 0.316 µM
[12] = second compound 0.1 µM, first compound 1 µM
[13] = second compound 0.316 µM, first compound 0.00316 µM
[14] = second compound 0.316 µM, first compound 0.01 µM
[15] = second compound 0.316 µM, first compound 0.0316 µM
[16] = second compound 0.316 µM, first compound 0.1 µM
[17] = second compound 0.316 µM, first compound 0.316 µM
[18] = second compound 0.316 µM, first compound 1 µM
[19] = second compound 1 µM, first compound 0.00316 µM
[20] = second compound 1 µM, first compound 0.01 µM
[21] = second compound 1 µM, first compound 0.0316 µM
[22] = second compound 1 µM, first compound 0.1 µM
[23] = second compound 1 µM, first compound 0.316 µM
[24] = second compound 1 µM, first compound 1 µM
[25] = second compound 3.16 µM, first compound 0.00316 µM
[26] = second compound 3.16 µM, first compound 0.01 µM
[27] = second compound 3.16 µM, first compound 0.0316 µM
[28] = second compound 3.16 µM, first compound 0.1 µM
[29] = second compound 3.16 µM, first compound 0.316 µM
[30] = second compound 3.16 µM, first compound 1 µM
[31] = second compound 10 µM, first compound 0.00316 µM
[32] = second compound 10 µM, first compound 0.01 µM
[33] = second compound 10 µM, first compound 0.0316 µM
[34] = second compound 10 µM, first compound 0.1 µM
[35] = second compound 10 µM, first compound 0.316 µM
[36] = second compound 10 µM, first compound 1 µM
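Further: spheroids exposed to drugs for seven days before readout.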
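Wherever viability, T/C is given: percent viability relative to DMSO vehicle control taken as 100%.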

CCc1c2c(nc3ccc(O)cc13)-c1cc3c(c(=O)n1C2)COC(=O)[C@]3(O)CC + COC1C(OC(N)=O)C(O)C(Oc2ccc3c(O)c(NC(=O)c4ccc(O)c(CC=C(C)C)c4)c(=O)oc3c2C)OC1(C)C
IC50 (second compound 0.0316 µM): < 0.00316 µM | IC50 (second compound 0.1 µM): < 0.00316 µM | IC50 (second compound 0.316 µM): < 0.00316 µM | IC50 (second compound 1 µM): < 0.00316 µM | IC50 (second compound 3.16 µM): < 0.00316 µM | IC50 (second compound 10 µM): < 0.00316 µM | viability, T/C [1]: 42.4% | viability, T/C [2]: 8.01% | viability, T/C [3]: 6.39% | viability, T/C [4]: 2.16% | viability, T/C [5]: 1.05% | viability, T/C [6]: 0.62% | viability, T/C [7]: 49.5% | viability, T/C [8]: 11.7% | viability, T/C [9]: 5.4% | viability, T/C [10]: 1.94% | viability, T/C [11]: 0.57% | viability, T/C [12]: 1.04% | viability, T/C [13]: 45.1% | viability, T/C [14]: 8.27% | viability, T/C [15]: 5.04% | viability, T/C [16]: 2.09% | viability, T/C [17]: 2.43% | viability, T/C [18]: 0.41% | viability, T/C [19]: 40% | viability, T/C [20]: 9.16% | viability, T/C [21]: 5.09% | viability, T/C [22]: 1.92% | viability, T/C [23]: 0.94% | viability, T/C [24]: 0.31% | viability, T/C [25]: 41.8% | viability, T/C [26]: 9.15% | viability, T/C [27]: 5.39% | viability, T/C [28]: 2.03% | viability, T/C [29]: 0.93% | viability, T/C [30]: 0.3% | viability, T/C [31]: 41.5% | viability, T/C [32]: 7.13% | viability, T/C [33]: 6.51% | viability, T/C [34]: 1.69% | viability, T/C [35]: 1.78% | viability, T/C [36]: 0.49%

C=CCn1c(=O)c2cnc(Nc3ccc(N4CCN(C)CC4)cc3)nc2n1-c1cccc(C(C)(C)O)n1 + Nc1ccc(C#CCN(C(=O)Cc2ncc(C(F)(F)F)cc2C(F)(F)F)c2ccc(F)cc2)nn1
IC50 (second compound 0.0316 µM): 0.447 µM | IC50 (second compound 0.1 µM): 0.488 µM | IC50 (second compound 0.316 µM): 0.436 µM | IC50 (second compound 1 µM): 0.447 µM | IC50 (second compound 3.16 µM): 0.499 µM | IC50 (second compound 10 µM): 0.451 µM | viability, T/C [1]: 90.6% | viability, T/C [2]: 101% | viability, T/C [3]: 93.7% | viability, T/C [4]: 104% | viability, T/C [5]: 70.3% | viability, T/C [6]: 2.92% | viability, T/C [7]: 95.5% | viability, T/C [8]: 99.2% | viability, T/C [9]: 107% | viability, T/C [10]: 111% | viability, T/C [11]: 78.1% | viability, T/C [12]: 3.57% | viability, T/C [13]: 95.7% | viability, T/C [14]: 91.7% | viability, T/C [15]: 97% | viability, T/C [16]: 92.4% | viability, T/C [17]: 68.1% | viability, T/C [18]: 3.12% | viability, T/C [19]: 103% | viability, T/C [20]: 103% | viability, T/C [21]: 100% | viability, T/C [22]: 97.5% | viability, T/C [23]: 69.8% | viability, T/C [24]: 3.73% | viability, T/C [25]: 113% | viability, T/C [26]: 99.3% | viability, T/C [27]: 96.1% | viability, T/C [28]: 105% | viability, T/C [29]: 80.9% | viability, T/C [30]: 3.02% | viability, T/C [31]: 101% | viability, T/C [32]: 88.8% | viability, T/C [33]: 92.3% | viability, T/C [34]: 88.6% | viability, T/C [35]: 71.4% | viability, T/C [36]: 2.81%
